Molecules are shown by their SMILES. Read-outs that look alike come from different tables or passages of the source.

For this data set the following is noted: for sorption/desorption profile (hygroscopicity): DMS, two cycles of sorption and desorption, 25° C.

Description: Dynamic moisture sorption (DMS) measurement was performed using a VTI atmospheric microbalance, SGA-100 system (VTI Corp., Hialeah, FL 33016). A weighed sample was used and the humidity was lowest possible value (close to 0% RH) at the start of the analysis. The DMS analysis consisted of an initial drying step (˜0%RH) for 120 minutes, followed by two cycles of sorption and desorption with a scan rate of 5% RH/step over the humidity range of 5% RH to 90% RH. The DMS run was performed isothermally at 25° C.

For `CCc1cc(O)c(F)cc1-c1ccc2c(-c3nc4c([nH]3)CCN(C3CCN(C)CC3)C4)n[nH]c2c1.O.O=C(O)CCC(=O)O` [succinate hydrate, Crystalline Succinate Hydrate of 5-ethyl-2-fluoro-4-(3-(5-(1-methylpiperidin-4-yl)-4,5,6,7-tetrahydro-1H-imidazo[4,5-c]pyridin-2-yl)-1H-indazol-6-yl)phenol], the “sorption/desorption profile (hygroscopicity)” value is reported as “slight propensity for hygroscopicity”. Further, the total moisture uptake entry (relative humidity between about 5% and about 90% at room temperature) was “about 2%”.

For the compound `CCc1cc(O)c(F)cc1-c1ccc2c(-c3nc4c([nH]3)CCN(C3CCN(C)CC3)C4)n[nH]c2c1.O.O=C(O)C(=O)O` [oxalate hydrate, Crystalline Oxalate Hydrate of 5-ethyl-2-fluoro-4-(3-(5-(1-methylpiperidin-4-yl)-4,5,6,7-tetrahydro-1H-imidazo[4,5-c]pyridin-2-yl)-1H-indazol-6-yl)phenol], the “sorption/desorption profile (hygroscopicity)” value is on record as “slight propensity for hygroscopicity”. Besides, the total moisture uptake entry (relative humidity between about 30% and about 90% at room temperature) is “about 1%”.
